In patent publication US7157480B2, “Use of pramipexole to treat amyotrophic lateral sclerosis” (priority 2001, dated 2007):
Where two headings read alike, the source gives them in different places.

Legend:
SH-SY5Y cells = assay type: cell-based, human
Procedure: (§1) SH-SY5Y human neuroblastoma cells were obtained from the American Tissue Culture Collection (www.atcc.org) and maintained in culture in a replicating state. For caspase assays and cytochrome C release studies they were grown in T75 flasks with DMEM/high glucose containing 10% fetal bovine serum, antibiotic/antimicotic (100 IU/ml of penicillin, 100 μg/ml of streptomycin sulfate, 0.25 μg/ml of amphotericin B) and 50 μg/ml of uridine and 100 μg/ml of pyruvate in a 5% CO2 atmosphere at 37° C. to approximately full confluence (2×10^7 cell/flask). They were then incubated with 5 mM methylpyridinium iodide (MPP+; Sigma; www.sigma-aldrich.com) or 100 μM 25–35 or 35–25 beta amyioid peptides (Bachem; www.bachem.com) for varying times, then harvested. For cell death studies, the cells were plated into 96 well black-bottom plates and grown for 24 hours in DMEM media before being exposed to toxin.
Cell death was estimated by measuring loss of calcein retention with the “Live-Dead” assay (Molecular Probes; www.molecularprobes.com) in cells grown in 96 well plates and incubated with calcein-AM, according to manufacturer's instructions. Calcein signals were assayed in a SpectraMax Gemini adjustable fluorescent plate reader (Molecular Devices). Calcein fluorescence from cells preincubated with methanol was subtracted from all readings as background. Each assay was performed with 8 wells/condition, which were averaged. 3–8 independent experiments were performed to evaluate a broad range of concentrations of S(−) and R(+) PPX in this paradigm.
(§2) R(+) and S(−) PPX (gifts of Pharmacia Corporation) were obtained as their dihydrochloride salts and dissolved directly into culture media. Bongkreckic acid, an antagonist of the ATP binding site on the adenine nucleotide translocator, was provided as a solution in 1M NH4OH. Aristolochic acid (sodium salt), a phospholipase A2 inhibitor, was obtained from Sigma Chemical Co. In the caspase experiments, drugs were added 1 hour before MPP+ or beta amyloid peptide. In the calcein/cell death experiments, drugs were added 4 hours before MPP+.

caspase 3 [1] = assay type: cell-based, human
Procedure: as §1
(§3) After exposure to MPP+ or beta amyloid peptide, cells were collected in PBS and centrifuged at 450×g for 6 minutes at 4° C. Cell pellets were resuspended in a hypotonic cell lysis buffer [25 mM HEPES, 5 mM MgCl2, 5 mM EDTA, […] and protease inhibitor cocktail (Sigma Chemical)] at a concentration of 2×10^7 cells/100 μl of lysis buffer. Lysates were subjected to four cycles of freezing and thawing. Cell lysates were then centrifuged at 16,000×g for 30 minutes at 4° C. The supernatant fractions were collected, and protein content was measured by Lowry assay (BioRad). 100 μg of protein was used to measure caspase activity in 96 well plates and was assayed in quadruplicate. The activity was measured using the assay buffer and the protocol provided by the manufacturers. (Biomol, caspase 3; Promega, caspases 3 and 9). […] Chromogen absorbance (p-NA) was measured on an OptiMax plate reader or chromogen fluorescence (AMC) on a SpectraMax Gemini plate reader at zero time and after 30 minutes of incubation at 37 degrees to estimate relative caspase activities. Chromogen signal at zero time was subtracted from the readings at 30 minutes.
as §2

caspase 9 = assay type: cell-based, human
Procedure: as §1, §3, §2

[2] = system: D2 family dopamine receptors; conditions: cited from earlier work
oxidative stress [3] = conditions: 12 SALS subjects
Procedure: The present study was conducted in two phases. […] These participants underwent aspirin loading with subsequent 2,3-DHBA analysis. After receiving 1.3 grams of aspirin po, blood was drawn 2, 3, and 4 hours later. Serum was separated, frozen and stored at −80 degrees. Aliquots of serum were subsequently coded and blinded for 2,3-DHBA and salicylate assays.
The subjects received 1.3 grams of aspirin po, and blood was drawn 3 hours later. Following acquisition of these baseline samples, SALS participants began pramipexole therapy. Dosage escalation was performed similar to PD patients with an attempt made to reach 1.5 mg t.i.d.-q.i.d. as the final dose, following a 7 week titration. After each participant was on his/her highest pramipexole dose for three weeks, the aspirin loading study was performed once again. […] Each participant was then offered the opportunity to continue with pramipexole treatment.
Preparation of serum: 0.9 ml of serum at 4° C. was mixed with 0.2 ml of 1 M perchloric acid and centrifuged at 15,000 rpm for 10 minutes in a refrigerated microcentrifuge.
Assay for 2,3-DHBA: 20 uL of supernatant were injected in duplicate onto a C18 “Catecholamine” Adsorbosphere column (Alltech) perfused at 0.6 ml/min with buffer consisting of 125 ml/L acetonitrile, 1.5 gn/L of sodium heptane sulfonate, 3 ml/L triethylamine, 100 mg/L of Na2 EDTA with final pH adjusted to 2.8 with phosphoric acid. Detection utilized a CouloChem II flow-through electrochemical detector (ESA, with the following settings: guard cell=+600 mV; E1=−100 mV; E2=+400 mV). 2,3-DHBA eluted at 10–10.5 minutes under these conditions.
Assay for salicylate: 50 uL of supernatant were injected in duplicate onto a C8 Kromosil HPLC column (Alltech) perfused at 0.8–1.0 ml/min with 70% methanol/30% water/0.5% trifluoroacetic acid. Salicylate eluted at 6–7 minutes under these conditions and was detected by ultraviolet absorption at 315 nm.

caspase 3 [4] = conditions: SH-SY5Y
Procedure: as §1, with “For cell death studies, the cells were plated into 96 well black-bottom plates and grown for 24 hours in DMEM media before being exposed to toxin.” left out
After exposure to MPP+ or beta amyloid peptide, cells were collected in PBS and centrifuged at 450×g for 6 minutes at 4° C. […] The supernatant fractions were collected, and protein content was measured by Lowry assay (BioRad). […] The activity was measured using the assay buffer and the protocol provided by the manufacturers. […] Chromogen absorbance (p-NA) was measured on an OptiMax plate reader or chromogen fluorescence (AMC) on a SpectraMax Gemini plate reader at zero time and after 30 minutes of incubation at 37 degrees to estimate relative caspase activities. Chromogen signal at zero time was subtracted from the readings at 30 minutes. […]

[5] = ALS subjects who completed dose escalation, 3–6 mg per day
Procedure: Following acquisition of these baseline samples, SALS participants began pramipexole therapy. Dosage escalation was performed similar to PD patients with an attempt made to reach 1.5 mg t.i.d.-q.i.d. as the final dose, following a 7 week titration.

[6] = relative to S(−) pramipexole; cited from earlier work
[7] = 8 week toxicology study in mice, pathology of major organs; assay type: in vivo; conditions: drinking water, 8 weeks
Procedure: Toxicology studies have also been conducted and no evidence of adverse effects were detected. In particular, an 8 week toxicology study was performed in the mice given R(+) PPX in their drinking water.

oxidative stress [8] = test: MPTP-induced forebrain oxidative stress (2,3-DHBA) in mice; assay type: in vivo, C57BL/6 mice; conditions: MPTP 30 mg/kg s.c.
Procedure: Male C57BL/6 mice received daily R(+) pramipexole dihydrochloride in drinking water for 8 weeks at doses calculated to provide 0, 10, 30 or 100 mg/kg/day. On the day of the study the mice were injected with 30 mg/kg s.c. of the neurotoxin N-methyl-4-phenyl-1,2,3,6-tetrahydropyridine (MPTP) to increase oxidative stress in the brain. One hour later the mice were injected with 100 mg/kg i.p. of sodium salicylate. One hour after salicylate injection the mice were killed and forebrains analyzed for 2,3-dihydroxybenzoic acid (2,3-DHBA) content.

C[n+]1ccc(-c2ccccc2)cc1.[I-] [MPP+, methylpyridinium iodide]
reduction of calcein uptake (SH-SY5Y cells; SH-SY5Y, 5 mM MPP+ alone, 24 hours): about 60% | increase of caspase 3 activity (caspase 3 [1]; SH-SY5Y, 5 mM MPP+, by 24 hours): about 2 fold

CCCN[C@H]1CCc2nc(N)sc2C1 [S(−) PPX, S(−)-2-amino-4,5,6,7-tetrahydro-6-propylaminobenzathiazole]
calcein retention in the presence of MPP+, enantiomer comparison (SH-SY5Y cells): greater calcein retention than R(+) PPX | calcein uptake after MPP+ (SH-SY5Y cells): substantially restored | MPP+-induced caspase 3 activation (caspase 3 [1]): suppressed | MPP+-induced increases in caspase 9 activity (caspase 9): blocked | dopamine agonist activity [2]: potent agonist | mean reduction of serum 2,3-DHBA concentration (oxidative stress [3]; 3–6 mg per day oral, pre vs post treatment, 3 hours after 1.3 grams aspirin, p=0.015): about 45% | average reduction of serum 2,3-DHBA normalized to salicylate levels (oxidative stress [3]; 3–6 mg per day oral, pre vs post treatment, p=0.010): 59% | individual serum levels of 2,3-DHBA pre vs post treatment (oxidative stress [3]; without exception): reduced | reduction of the increases in caspase 3 activity following BA 25–35 peptide (caspase 3 [4]; 100 μM beta amyloid 25–35): about 70% | effect on caspase 3 activity by itself (caspase 3 [4]; drug alone without toxin): no suppressive effect | tolerability [5]: well tolerated

CCCN[C@@H]1CCc2nc(N)sc2C1.Cl.Cl [R(+) PPX, R(+)-2-amino-4,5,6,7-tetrahydro-6-propylaminobenzathiazole dihydrochloride]
potency to produce the side effects that result from the use of S(−) pramipexole [6]: ≤ 1% | pathological examination of all major organs [7]: no lesions were found | calcein retention in the presence of MPP+, enantiomer comparison (SH-SY5Y cells; 3 nM PPX, 5 mM MPP+ 24 hours, p=0.035): greater calcein retention than S(−) PPX | calcein uptake after MPP+ (SH-SY5Y cells; SH-SY5Y, 5 mM MPP+ 24 hours, 30 nM PPX added 4 hours before, effect retained through 30 μM): substantially restored | MPP+-induced caspase 3 activation (caspase 3 [1]; SH-SY5Y, 5 mM MPP+ 24 hours, 1 mM PPX added 1 hour before, p<0.05 vs MPP+): suppressed | MPP+-induced increases in caspase 9 activity (caspase 9; SH-SY5Y, 5 mM MPP+ 8 hr, 1 mM PPX): blocked | dopamine agonist activity [2]: very little dopamine agonist activity | forebrain oxidative stress produced by MPTP (2,3-DHBA) (oxidative stress [8]; 30 mg/kg/day in drinking water for 8 weeks): significantly reduced | forebrain oxidative stress produced by MPTP (2,3-DHBA) (oxidative stress [8]; 100 mg/kg/day in drinking water for 8 weeks): significantly reduced

COc1cccc2c1cc([N+](=O)[O-])c1c(C(=O)O)cc3c(c12)OCO3 [aristolochic acid, Aristolochic acid]
MPP+-induced caspase 3 activation (caspase 3 [1]; SH-SY5Y, 5 mM MPP+ 24 hours, 25 μM aristolochic acid, p<0.05 vs MPP+): prevented increases | MPP+-induced increases in caspase 9 activity (caspase 9; SH-SY5Y, 5 mM MPP+ 8 hr, 25 μM aristolochic acid): blocked

CO[C@H](C/C=C\C=C\CC/C=C/C[C@H](C)/C=C/C(=C\C(=O)O)CC(=O)O)/C(C)=C\C=C(/C)C(=O)O [bongkreckic acid, Bongkreckic acid]
MPP+-induced caspase 3 activation (caspase 3 [1]; SH-SY5Y, 5 mM MPP+ 24 hours, 250 μM bongkreckic acid, p<0.05 vs MPP+): blocked | MPP+-induced increases in caspase 9 activity (caspase 9; SH-SY5Y, 5 mM MPP+ 8 hr, 250 μM bongkreckic acid): blocked
